Test results: US6162798A, “Inhibitor of atherosclerotic intimal thickening” (priority 1991, dated 2000)

How the values were obtained:
[1] = tested on: J774 macrophages (J774-M.phi.); test: Inhibitory effects against adhesion of J774 macrophages; type: cell-based; settings: Mus musculus, 48 hours pretreatment; for inhibition at 10 µM: drug concentration 10^-5 M; for inhibition at 1 µM: drug concentration 10^-6 M
Method: The inhibitory effects of the compounds in the present invention on cell adhesion of J774-M.phi. were measured by the following methods. […] Then, culture was continued with a control medium containing 0.2% of DMSO or with a medium containing a test compound for 48 hours as pretreatment. Then, the cells were scraped by means of a rubber policeman and suspended in the above medium. 200,000 cells were seeded to a 24 well multi-well plate., and cultured for 12 hours. After that, the cells attached to the well plates were scraped by a rubber policeman, and the number of cells was counted by a Coulter counter. The obtained results are represented by an average value of the number of cells in three wells at the time of the pretreatment, in each case, and the inhibition (%) on the adhesion was calculated in accordance with the following formula.

[2] = tested on: aortic intimal smooth muscle cells (I-SMC); test: Inhibitory effect on 3H-thymidine uptake in aortic intimal smooth muscle cells; type: cell-based, atherosclerotic Japanese white rabbit; settings: Oryctolagus cuniculus, 24 hours with compound, read-out: Inhibition (%) Intima; for inhibition at 10 µM: drug concentration 10^-5 M; for inhibition at 1 µM: drug concentration 10^-6 M
Method: (§1) The inhibitory effects of the compound of the present invention on ^3 H-thymidine uptake in I-SMC and M-SMC were measured by the following methods. M-SMC and I-SMC are obtained from aortic media of a healthy Japanese white rabbit and from aortic intima of an atherosclerotic Japanese white rabbit as mentioned in Example 2. After three or four times subculture, the cells in the state of confluency were trypsinized and suspended in a DME medium containing 10% of FBS and an antibiotic so that the cell density would be 40,000 cells/ml. The 10,000 cells were seeded to a 48 well multi-well plate. After 4 days culture, the medium was replaced by the control medium or the medium containing a test compound as used in Example 2, and culture was continued for 24 hours. Then, 1 μCi ([…]) of ^3 H-thymidine was added thereto, and culture was continued for 3 hours. The cells were washed three times with a phosphate buffered physiological saline (PBS) and treated with chilled 5% trichloroacetic acid (TCA). The insoluble-fraction was washed with chilled TCA and then dissolved in a 0.5N potassium hydroxide aqueous solution. The ^3 H radioactivity was measured by a liquid scintillation counter and the protein content was measured. […] The inhibition (%) was calculated in accordance with the following formula.

[3] = tested on: leukemic cells (HL-60); test: Inhibitory effects against adhesion of leukemic cells (HL-60) induced by TPA; type: cell-based; settings: Homo sapiens, HL-60, TPA-induced, 48 hours pretreatment; for inhibition at 10 µM: drug concentration 10^-5 M
Method: The inhibitory effects of the compounds in the present invention on cell adhesion of HL-60 were measured by the following methods. HL-60 cells were cultured in a RPMI 1640 medium containing 10% of FBS and an antibiotic at 37° C. in an atmosphere comprising 95% of air and 5% of carbon dioxide and then seeded to a 6 well multi-well plate in an amount of 2 ml per well at a cell density of 1,000,000/ml. A test compound dissolved in DMSO was added so that the final DMSO concentration would be 0.2%, and incubation was carried out for 48 hours for pretreatment. Then, 500,000 cells were seeded to a 24 well multi-well plate, and 0.02 mM of phorbol myristate acetate (TPA) dissolved in ethanol, was added in an amount of 1/250 (v/v) of the culture medium, and then culture was continued for 12 hours. After that, the cells were washed with PBS and the cells attached to the well plates were scraped off by trypsinization and suspended in Isoton, and the number of cells were counted by a Coulter counter. A control test was carried out by adding DMSO alone.

[4] = tested on: aortic intimal smooth muscle cells (I-SMC); test: Inhibitory effects on proliferation of aortic intimal smooth muscle cells (cell count); type: cell-based, atherosclerotic Japanese white rabbit; settings: Oryctolagus cuniculus, fold increase of cell number second to fifth day, read-out: Inhibition (%) Intima; for inhibition at 10 µM: drug concentration 10^-5 M; for inhibition at 1 µM: drug concentration 10^-6 M
Method: (§2) The inhibitory effects of the compounds of the present invention on the proliferation of I-SMC and M-SMC were measured by the following methods. […] After twice or three times subculture of cells, the cells in the state of confluency were trypsinized and suspended in the above medium so that the cell density would be 20,000 cells/ml. Then, the 10,000 cells were seeded and cultured on a 24 well multi-well plate. After incubation for 6 hours, the medium was replaced by 0.5 ml of a control medium or a medium containing a test compound. At the same time, the number of cells initially attached to the plate was counted and taken as the initial cell number (I). The test compound was added to the medium as described in Example 1. As the control, DMSO was added alone so that the final concentration would be 0.2%. The medium change was carried out every 2 days, and on the first, second, third, fifth and seventh days, the cells were trypsinized and suspended in Isoton and counted cell number by a Coulter counter. The obtained results were represented by an average number of cells of three wells in each case, and the inhibition (%) of the fold increase of the cell number from the second day to the fifth day was calculated in accordance with the following formula.

[5] = tested on: aortic medial smooth muscle cells (M-SMC); test: Inhibitory effect on 3H-thymidine uptake in aortic medial smooth muscle cells; type: cell-based, healthy Japanese white rabbit; settings: Oryctolagus cuniculus, 24 hours with compound, read-out: Inhibition (%) Media; for inhibition at 10 µM: drug concentration 10^-5 M; for inhibition at 1 µM: drug concentration 10^-6 M
Method: as §1

[6] = tested on: aortic medial smooth muscle cells (M-SMC); test: Inhibitory effects on proliferation of aortic medial smooth muscle cells (cell count); type: cell-based, healthy Japanese white rabbit; settings: Oryctolagus cuniculus, fold increase of cell number second to fifth day, read-out: Inhibition (%) Media; for inhibition at 10 µM: drug concentration 10^-5 M; for inhibition at 1 µM: drug concentration 10^-6 M
Method: as §2

[7] = tested on: aortic medial smooth muscle cells (M-SMC); test: Inhibitory effects on migration of aortic medial smooth muscle cells (Boyden's chamber); type: cell-based, Sprague Dawley male rat; settings: migration of rat M-SMC, drug concentration 10^-5 M, 4 hours
Method: The inhibitory effects of the compounds of the present invention on migration of M-SMC were measured by the following methods. Arterial medial slices of the thoracic of aorta of a Sprague Dawley male rat were cultured by using a medium of Dulbecco's Modified Eagle (DME) containing 10% fetal bovine serum (FBS) at 37° C. in an atmosphere comprising 95% of air and 5% of carbon dioxide for 3 or 4 weeks. The aortic medial smooth muscle cells grown from the arterial medial slices were subcultured by 1:2 split of cell density for stable subculture. After the three or four times subculture, the cells in the state of confluency were subjected to trypsinized and then suspended in the above medium at a cell density of 500,000 cells per ml. To the cell suspension, a test compound dissolved in dimethylsulfoxide (DMSO) was added so that the final DMSO concentration would be 0.2%, and the cell suspension was pre-incubated at 37° C. for 30 minutes. As a control, DMSO was added alone at the same concentration. In the lower compartment of Boyden's chamber partitioned with a nitrocellulose membrane, 10 ng/ml of a platelet-derived growth factor (PDGF) or DME medium containing a 10% SMC-conditioned DME medium (SMC-CM) obtained from 48 hours conditioning was filled as a migration factor. In the upper compartment thereof, 1 ml of the cell suspension was loaded, and incubation was conducted at 37° C. for 4 hours in a culture condition. As the blank, the DME medium without migration factor was filled in the lower compartment. After 4 hour incubation, the cells adhered to the upper side of the nitrocellulose membrane were removed, and the cells migrated to the lower side of the membrane were fixed and stained by Diff Quik. The number of migrated cells was counted in the 10 fields by a light microscope at 400 x HPF.

[8] = migration factor 10 ng/ml PDGF, read-out: Inhibition (%) PDGF
[9] = migration factor 10% SMC-conditioned medium, read-out: Inhibition (%) SMC-CM

| Structure (SMILES) | inhibition at 10 µM [1] [%] | inhibition at 1 µM [1] [%] | inhibition at 10 µM [2] [%] | inhibition at 1 µM [2] [%] | inhibition at 10 µM [3] [%] | inhibition at 10 µM [4] [%] | inhibition at 1 µM [4] [%] | inhibition at 10 µM [5] [%] | inhibition at 1 µM [5] [%] | inhibition at 10 µM [6] [%] | inhibition at 1 µM [6] [%] | inhibition at 10 µM [7, 8] [%] | inhibition at 10 µM [7, 9] [%] | inhibition at 1 µM ([3]; drug concentration 10^-6 M) [%] | inhibition at 0.1 µM ([3]; drug concentration 10^-7 M) [%] |
| --- | --- | --- | --- | --- | --- | --- | --- | --- | --- | --- | --- | --- | --- | --- | --- |
| CC[C@H](C)C(=O)O[C@H]1C[C@H](O)C=C2C=C[C@H](C)[C@H](CC[C@@H](O)C[C@@H](O)CC(=O)O)[C@H]21 [Pravastatin, reference compound] | 41.3 | 40 | -7.2 | -7 | -2.8 | 1.3 | 1.3 | -34.3 | 8.7 | -11.7 | 8.7 | 61.8 | 26.2 |  |  |
| Cc1nn(C)c2nc(C3CC3)c(/C=C/[C@@H]3C[C@@H](O)CC(=O)O3)c(-c3ccc(F)cc3)c12 (relative stereo) [Test compound 2, (E)-trans-6-(2'-[6"-cyclopropyl-1',3'-dimethyl-4'-(4'"-fluorophenyl)pyrazolo[3,4-b]pyridin-5"-yl]ethenyl)-4-hydroxy-3,4,5,6-tetrahydro-2H-pyran-2-one] |  |  | 91.5 | 11.7 |  | 98.2 | 84.6 | 88.4 | 36.4 | 86.5 | 4.7 | 98.2 | 32.8 |  |  |
| CCc1c(C)sc2nc(C3CC3)c(/C=C/[C@@H]3C[C@@H](O)CC(=O)O3)c(-c3ccc(F)cc3)c12 (relative stereo) [Test compound 3, (E)-trans-6-(2'-[2'-cyclopropyl-5'-ethyl-3'-(4'"-fluorophenyl)-6'-methylthieno[2,3-b]pyridin-3'-yl]ethenyl)-4-hydroxy-3,4,5,6-tetrahydro-2H-pyran-2-on] | 92.4 | 92.2 | 94.1 | 69.9 | 96.4 | 100 | 100 | 92.2 | 53.6 | 100 | 31.5 | 100 | 41.7 | 92.2 | 4.8 |
